Assay results reported in US7144880B2, “Compositions relating to novel compounds and targets thereof” (Regents of the University of Michigan, priority 2003, dated 2006).
Like-named read-outs stand apart in the source and are kept apart here.

Legend:
[1] = biological target: T1, mitochondrial F1F0-ATPase (Bos taurus, UniProt P13621); assay: ATPase activity in sub-mitochondrial particles (SMPs); format: biochemical, bovine; settings: 80 μM
T1 construct: from tissue
Excerpt: Oligomycin, a macrolide natural product that binds to the mitochondrial F1F0-ATPase, induces a state 3 to 4 transition and generates O2^− like Bz-423. Based on these similarities, it is possible that the F1F0-ATPase is also the molecular target for Bz-423. To test this hypothesis, the effect of Bz-423 on ATPase activity in sub-mitochondrial particles (SMPs) was examined.
>40 derivatives of Bz-423 were developed to determine the elements on this novel agent required for biological activity. […] The potency of these analogues in cell based assays correlated with the ED50 values in ATPase inhibition experiments using SMPs.

[2] = test system: panel of cells in Table 2; assay: Antiproliferation against the panel of cells, 3 d; format: cell-based; settings: after 3 d
[3] = biological target: T2, human OSCP (Homo sapiens, UniProt P48047); assay: Quenching of intrinsic OSCP fluorescence on titration (binding isotherm); settings: Bz-Cl, binds less tightly
T2 construct: made in house; host or cells: E. coli
T2 sequence (P48047 24-213): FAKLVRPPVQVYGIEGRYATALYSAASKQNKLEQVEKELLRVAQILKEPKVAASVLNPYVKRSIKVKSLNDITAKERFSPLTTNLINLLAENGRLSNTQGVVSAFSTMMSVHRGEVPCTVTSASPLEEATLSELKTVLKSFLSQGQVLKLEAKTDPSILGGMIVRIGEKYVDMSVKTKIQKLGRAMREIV
Excerpt: Oligomycin is a macrolide natural product that binds to the mitochondrial F1F0-ATPase, induces a state 3 to 4 transition, and as a result, generates ROS (e.g., O2^−). In preferred embodiments, the present invention binds the OSCP component of the mitochondrial F1F0-ATPase. In certain embodiments, screening assays of the present invention permit detection of binding partners of the OSCP. OSCP is an intrinsically fluorescent protein. In certain embodiments, titrating a solution of test compounds of the present invention into an E. Coli sample overexpressed with OSCP results in quenching of the intrinsic OSCP fluorescence. In other embodiments, fluorescent or radioactive test compounds can be used in direct binding assays. In other embodiments, competition binding experiments can be conducted. In this type of assay, test compounds are assessed for their ability to compete with Bz-423 for binding to the OSCP. In some embodiments, the compounds of the present invention cause a reduced increase in cellular ROS levels and reduced apoptosis in cells through regulation of the OSCP gene (e.g., altering expression of the OSCP gene). In further embodiments, the present invention functions by altering the molecular motions of the ATPase motor.
To determine if Bz-423 indeed binds to the OSCP and the affinity of the interaction, human OSCP was overexpressed in E. coli. […]

[4] = test system: cells; format: cell-based
[5] = test system: ornithine decarboxylase (ODC); assay: ODC activity in treated cells, conversion of 3H-ornithine to putrescine; format: cell-based; settings: cells treated 4 h
Experimental: In these experiments, the conversion of ornithine to putrescine was quantified using ^3H-ornithine. For comparisons, control cells were treated with vehicle control or difluoromethyl ornithine (DFMO), a potent inhibitor of ornithine decarboxylase (like Bz-423, DFMO is a potent anti-proliferative agent). […] The reduction in ODC activity was paralleled by a decrease in ODC protein levels measured under the same conditions.
As described above, Bz-423 induced apoptosis was signaled by an ROS response that arose from MRC complex III as a result of the state 3 to 4 transition. It was next sought to determine if the ROS response, critical for apoptosis, also mediated these effects on ODC. If the ROS was required for the decrease in ODC activity, it would likewise be implicated as potentially part of the anti-proliferative response to Bz-423. To test this, Ramos cells were treated with Bz-423, DFMO, or vehicle control for 4 h. In parallel, a second group of cells was pre-incubated with MnTBAP to limit the ROS and then cultured with Bz-423, DFMO, and vehicle control.

[6] = test system: Ramos B cells; assay: cells; format: cell-based, human
Experimental: Cell viability is assessed by staining with propidium iodide (PI, 1 μg/mL). PI fluorescence is measured using a FACScalibur flow cytometer (Becton Dickinson, San Diego, Calif.). Measurement of hypodiploid DNA is conducted after incubating cells in DNA-labeling solution (50 μg/mL of PI in PBS containing 0.2% Triton and 10 μg/mL RNAse A) overnight at 4 degrees C. The data is analyzed using the CellQuest software excluding aggregates.

[7] = test system: Ramos B cells; format: cell-based, human; settings: micromolar FK506
[8] = test system: isolated rat liver mitochondria; assay: ROS production in isolated mitochondria (DCFH oxidation to DCF); format: biochemical
Experimental: Male Long Evans rats are starved overnight and sacrificed by decapitation. Liver samples are homogenized in ice cold buffer A (250 mM sucrose, 10 mM Tris, 0.1 mM EGTA, pH 7.4), and nuclei and cellular debris are pelleted (10 min, 830 g, 4° C.). Mitochondria are collected by centrifugation (10 min, 15,000 g, 4° C.), and the supernatant is collected as the S15 fraction. The mitochondrial pellet is washed three times with buffer B (250 mM sucrose, 10 mM Tris, pH 7.4), and re-suspended in buffer B at 20–30 mg/mL. Mitochondria are diluted (0.5 mg/mL) in buffer C (200 mM sucrose, 10 mM Tris, pH 7.4, 1 mM KH2PO4, 10 μM EGTA, 2.5 μM rotenone, 5 mM succinate) containing 2′,7′-dichlorodihydrofluorescin diacetate (DCFH-DA, 1 μM). For state 3 measurements, ADP (2 mM) is included in the buffer, and prior to the addition of Bz-423, mitochondria are allowed to charge for 2 min. To induce state 4, oligomycin (10 μM) is added to buffer C. […] To detect effects on O2^− and delta ψm, mitochondria are incubated for 15 min at 37° C. in buffer C with vehicle, Bz-423, or CCCP containing DHE (5 μM) or DIOC6(3) (20 nM), and aliquots are removed for analysis by fluorescence microscopy.
O2^− production by Bz-423 may result from binding to a protein within mitochondria or a target in another compartment that signals mitochondria to generate ROS. To distinguish between these alternatives, isolated rat liver mitochondria were assayed for ROS production by monitoring the oxidation of 2′,7′-dichlorodihydrofluorescin diacetate to of 2′,7′-dichlorofluorescin in the presence and absence of Bz-423. In this assay, the rate of DCF production increased after a lag period during which endogenous reducing equivalents were consumed and the acetate moieties on the probe were hydrolyzed to yield 2′,7′-dichlorodihydrofluorescin, the redox-active species.

[9] = Ramos B cells, 24 h, propidium iodide exclusion, flow cytometry, error ±5%, read-out: EC50 (μM), cell death

Compound: CN1C(=O)CN=C(c2ccc(Cl)cc2)c2cc(Cl)ccc21 [4-Cl-diazepam, 4-chlorodiazepam]
- Inhibition of mitochondrial ATPase activity [1]: do not significantly inhibit

Compound: CN1C(=O)C(Cc2ccc3ccccc3c2)N=C(c2ccc(Cl)cc2)c2cc(Cl)ccc21 (centres unmarked) [Bz-Cl]
- Reduction of proliferation compared with Bz-423 [2]: comparable ED50 values
- Kd [3]: ~5 µM
- Decrease of cytotoxic activity compared to Bz-423 [4]: ~80%
- Effect on ODC activity [5]: inhibited ODC activity

Compound: CN1C(=O)CN=C(c2ccc(O)cc2)c2cc(Cl)ccc21 [Compound 1]
- EC50 [6, 9]: > 80 µM

Compound: CN1C(=O)C(Cc2ccc3ccccc3c2)N=C(c2ccccc2)c2cc(Cl)ccc21 (centres unmarked) [Compound 2]
- EC50 [6, 9]: > 80 µM

Compound: Cc1cc(C2=NC(Cc3ccc4ccccc4c3)C(=O)N(C)c3ccc(Cl)cc32)ccc1O (centres unmarked) [Compound 16]
- Inhibition of compound-induced cell death by FK506 [7]: ≈ 60%
- Cytotoxic potency compared with Bz-423 [6]: does not alter the activity
- EC50 ([6]; assessed as described in Table 1, read-out: EC50, cell death): 3 µM

Compound: CCC(C)N(C)C(=O)c1cc2ccccc2c(-c2ccccc2Cl)n1 (centres unmarked) [PK11195, reference compound]
- EC50 ([6]; Homo sapiens, Ramos B cells, 24 h, propidium iodide exclusion, flow cytometry, error ±5%, read-out: EC50 (μM), cell death): > 80 µM
- Inhibition of mitochondrial ATPase activity [1]: do not significantly inhibit

Compound: antimycin A [reference compound]
- Increase in rate of ROS production versus control ([8]; state 3 respiration, aerobic, after induction phase, slopes compared to control): nearly two-fold
- ROS production in state 4 mitochondria ([8]; state 4 respiration): is active
